This note sets out measurements from patent publication US11312754B2, “Sunflower seed protein-derived peptides” (ACCESS BUSINESS GROUP INTERNATIONAL LLC, priority 2019, dated 2022).

Broadly, the inhibition is the change of the read-out against control, counted positive when it falls. As usually defined, the IC50 is the concentration needed to halve the response being measured. A higher IC50 goes with lower potency.

In brackets after ≈: the same amount, converted by molar mass. Where a SMILES comes first, the peptide text is derived from it. Where no end group is shown, it is not given here.

The nature of assay [1]: Hydroxyl radical scavenging activity (HRSA) assay. The following applies: individual isolated peptides. The method, then:
The hydroxyl radical scavenging activity of crude hydrolysate and the protein hydrolysate composition of Fraction 7 is determined by dissolving samples (crude hydrolysate and the protein hydrolysate composition of Fraction 7 of Example 1) and 1,10-phenanthroline in 0.1 M sodium phosphate buffer (pH 7.4). FeSO4 (3 mM) and 0.01% hydrogen peroxide are separately dissolved in distilled water. An aliquot (50 μL) of samples (final assay concentration of 0.5 mg/mL) or buffer (control) is first added to a clear, flat bottom 96-well plate followed by additions of 50 μL of 1,10-phenanthroline and 50 μL of FeSO4. To initiate reaction in the wells, 50 μL of hydrogen peroxide (H2O2) solution is added to the mixture, which is then covered and incubated at 37° C. for 1 h with shaking. Absorbance is measured at 536 nm every 10 min for a period of 1 h.
The procedure set forth above for Examples 12 & 13 is repeated using samples containing one of the isolated peptides 1-4 of Fraction 7 of Example 1.

Assay [2] has as its target T1, human recombinant renin (Homo sapiens, UniProt P00797).
T1 construct: purchased
T1 sequence (P00797 67-406): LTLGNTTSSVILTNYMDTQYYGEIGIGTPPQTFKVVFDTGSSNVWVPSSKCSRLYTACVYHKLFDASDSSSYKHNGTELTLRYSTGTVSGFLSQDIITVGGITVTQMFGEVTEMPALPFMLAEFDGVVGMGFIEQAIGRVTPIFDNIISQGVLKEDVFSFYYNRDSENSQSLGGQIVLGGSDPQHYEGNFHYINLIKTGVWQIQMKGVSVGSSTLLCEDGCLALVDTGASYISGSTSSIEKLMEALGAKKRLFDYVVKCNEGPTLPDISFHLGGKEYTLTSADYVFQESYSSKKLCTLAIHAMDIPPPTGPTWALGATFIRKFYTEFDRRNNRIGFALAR
The experiment in a line: Renin inhibition assay (Renin Inhibitor Screening Assay Kit). In kind it is biochemical. The following applies: individual isolated peptides, 1 mg/mL; read-out: % Inhibition ± SD of renin activity. The method, then:
In vitro inhibitory activity of human recombinant renin is conducted using a Renin Inhibitor Screening Assay Kit. Samples (crude hydrolysate and the protein hydrolysate composition of Fraction 7 of Example 1) are diluted in Tris-HCl buffer (50 mM, pH 8.0, containing 100 mM NaCl) to a final concentration 0.5 mg/mL, and pre-warmed to 37° C. The reaction is initiated by adding renin (10 μL), shaking for 10 s to mix, and incubating at 37° C. for 15 min. Fluorescence intensity (FI) is then recorded at an excitation wavelength of 340 nm and an emission wavelength of 490 nm using a fluorometric microplate reader. The results of the assay are set forth in Table 3 below, expressed as percent inhibition. The procedure set forth above for Examples 18 & 19 is repeated at 1 mg/mL concentrations using samples containing one of the isolated peptides 1-4 of Fraction 7 of Example 1.

Assay [3] in a line: DPPH radical scavenging assay. Conditions: individual isolated peptides. The method, then:
The scavenging activity of crude hydrolysate and the protein hydrolysate composition of Fraction 7 against DPPH is determined by first dissolving samples (crude hydrolysate and the protein hydrolysate composition of Fraction 7 of Example 1) in 0.1 M sodium phosphate buffer, pH 7.0 containing 1% (w/v) Triton X-100. DPPH is dissolved in methanol to a final concentration of 100 μM, and mixed with the samples in the 96-well plate to a final assay concentration of 1 mg/mL. The samples are then incubated at room temperature in the dark for 30 min, and the absorbance read at 517 nm.
The procedure set forth about for Examples 10 & 11 is repeated using samples containing one of the isolated peptides 1-4 of Fraction 7 of Example 1.
In general terms: The DPPH test is a chemical assay of radical scavenging.

Assay [4] addresses ACE (Homo sapiens, UniProt P12821). Kind of assay: ACE inhibition assay (FAPGG substrate). In kind it is biochemical. Conditions: individual isolated peptides. Here is the method:
The ability of sample to inhibit in vitro activity of ACE is determined by mixing 1 mL of FAPGG (0.5 mM, dissolved in buffer [50 mM Tris-HCl buffer containing 0.3 M NaCl, pH 7.5]) with 20 μL ACE (1 U/mL, final activity of 20 mU) and 200 μL sample (crude hydrolysate and the protein hydrolysate composition of Fraction 7 of Example 1, each dissolved in buffer to 1 mg/mL). The rate of decrease in absorbance at 345 nm is recorded for 2 min at room temperature. The results of the assay are set forth in Table 3 below, expressed as percent inhibition.
The procedure set forth above for Examples 16 & 17 is repeated using samples containing one of the isolated peptides 1-4 of Fraction 7 of Example 1.

Sequence of ACE (P12821 30-1306, species assumed): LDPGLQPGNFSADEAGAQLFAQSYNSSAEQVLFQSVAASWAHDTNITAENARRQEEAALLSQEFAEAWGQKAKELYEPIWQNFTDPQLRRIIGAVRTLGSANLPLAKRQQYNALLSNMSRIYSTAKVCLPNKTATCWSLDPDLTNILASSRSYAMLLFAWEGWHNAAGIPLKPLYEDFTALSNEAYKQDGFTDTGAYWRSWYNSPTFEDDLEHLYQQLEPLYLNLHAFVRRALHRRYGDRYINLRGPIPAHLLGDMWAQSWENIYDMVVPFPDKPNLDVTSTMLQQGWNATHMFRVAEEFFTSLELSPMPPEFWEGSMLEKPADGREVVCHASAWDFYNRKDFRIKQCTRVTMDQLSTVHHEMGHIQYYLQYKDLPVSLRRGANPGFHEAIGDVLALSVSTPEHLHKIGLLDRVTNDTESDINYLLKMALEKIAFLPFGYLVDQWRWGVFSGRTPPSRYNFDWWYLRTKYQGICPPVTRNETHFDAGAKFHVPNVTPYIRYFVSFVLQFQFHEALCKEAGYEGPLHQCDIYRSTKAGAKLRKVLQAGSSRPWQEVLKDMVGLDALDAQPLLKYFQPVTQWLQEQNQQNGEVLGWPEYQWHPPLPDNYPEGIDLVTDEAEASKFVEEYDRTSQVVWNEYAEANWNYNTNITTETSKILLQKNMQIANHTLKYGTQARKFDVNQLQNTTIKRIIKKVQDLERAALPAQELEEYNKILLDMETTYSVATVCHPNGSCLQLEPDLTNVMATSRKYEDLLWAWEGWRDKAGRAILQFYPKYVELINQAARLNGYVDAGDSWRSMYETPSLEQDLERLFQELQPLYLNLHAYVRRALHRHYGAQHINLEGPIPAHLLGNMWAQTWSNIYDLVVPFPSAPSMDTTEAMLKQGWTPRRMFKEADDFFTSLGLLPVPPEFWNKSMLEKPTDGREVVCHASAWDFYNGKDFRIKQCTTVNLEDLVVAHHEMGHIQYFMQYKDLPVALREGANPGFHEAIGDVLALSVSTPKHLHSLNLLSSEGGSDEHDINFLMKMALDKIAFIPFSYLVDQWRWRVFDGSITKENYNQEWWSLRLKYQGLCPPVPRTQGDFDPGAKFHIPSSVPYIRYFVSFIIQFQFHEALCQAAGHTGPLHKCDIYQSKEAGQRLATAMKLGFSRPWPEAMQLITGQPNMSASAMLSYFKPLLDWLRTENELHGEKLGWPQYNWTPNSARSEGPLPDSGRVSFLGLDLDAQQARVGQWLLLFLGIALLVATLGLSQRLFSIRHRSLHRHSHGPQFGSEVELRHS

For the compound SGRDP [Peptide 2, Ser-Gly-Arg-Asp-Pro], in assay [1], the “IC50 hydrogen (hydroxyl) radical scavenging” value (from here on “IC50 hydrogen”) was 1900 ± 80 µg/mL. The inhibition at 1000 µg/mL in assay [2] was -54.5 ± 1.48%. Further, in assay [3], the “IC50 DPPH radical scavenging” value was found to be 28340 ± 380 µg/mL. For the same compound, the IC50 in assay [4] was 961 µM.
In the case of `CC(C)[C@H](NC(=O)[C@H](Cc1ccccc1)NC(=O)[C@@H](N)Cc1ccc(O)cc1)C(=O)N1CCC[C@H]1C(=O)O` [Peptide 1, Tyr-Phe-Val-Pro] (H-YFVP-OH; N-terminus and C-terminus assumed), the “IC50 hydrogen” value in assay [1] is 1930 ± 20 µg/mL (≈ 3.68 mM). Further, the inhibition at 1000 µg/mL in assay [2] was -40.5 ± 6.23%. Moreover, the “IC50 DPPH radical scavenging” value in assay [3] is 3850 ± 130 µg/mL (≈ 7.34 mM). The same compound gave a 50% inhibitory concentration (IC50) in assay [4] of 477 µM.
The matching figures for MVWGP [Peptide 3, Met-Val-Trp-Gly-Pro]: 2500 ± 30 µg/mL, -46.4 ± 1.56%, 4690 ± 50 µg/mL and 35.7 µM.
Regarding “TGSYTEGWS [Peptide 4, Thr-Gly-Ser-Tyr-Thr-Glu-Gly-Trp-Ser]”, the “IC50 hydrogen” value in assay [1] worked out at 1840 ± 10 µg/mL. Moreover, the inhibition at 1000 µg/mL in assay [2] is 107 ± 17.6%. Moreover, the “IC50 DPPH radical scavenging” value in assay [3] was 4260 ± 30 µg/mL. The IC50 in assay [4] is 557 µM.
